Experimental data published in patent publication US7803757B2, “Peptides based on the sequence of human lactoferrin and their use” (PharmaSurgics in Sweden AB, priority 1998, dated 2010).
Values after ≈ are worked out from the molar mass of the structure shown. Bridge positions count the residues as written; N and C are the ends. Ends that are not written are not given here. Peptide text beside a SMILES is read from it.

Tests used:
[1] = tested on: Candida albicans ATCC 64549; experiment: fungicidal and growth inhibitory activity, Candida albicans ATCC 64549 (Example 8); format: cell-based; settings: for Concentration of agent for 100% killing: C. albicans ATCC 64549 1·10^5/ml, 2 hours 37° C., diluted BHI; for Concentration of agent for inhibition of growth: C. albicans ATCC 64549, spectrophotometrically after 20 hours
Procedure: Candida albicans ATCC 64549 (1·10^5/ml) was incubated in the presence of the peptides during 2 hours at 37° C. in diluted growth medium (BHI, twofold serial dilutions starting with 50 μg/ml). The fungicidal activity was measured by culturing 5 μl from each incubation well on Saboroud agar plates.
The inhibition of growth was measured spectrophotometrically after 20 hours of incubation.

[2] = tested on: reference strain of S. aureus; experiment: bactericidal activity, reference strain of S. aureus (Example 19); format: cell-based; settings: reference strain of S. aureus 5.0×10^5 per ml, 2 hours at 37° C., lowest concentration tested 6.25 μg/ml
Procedure: In this example the bactericidal activity of three of the peptides according to the invention was studied in a test with a reference strain of S. aureus. A bacterial solution with a concentration of 5.0×10^5 S. aureus bacterial per ml was used. The concentration of each peptide needed to kill 99% of the bacteria (MMC99%) was determined after 2 hours of incubation at 37° C. The lowest concentration tested was 6.25 μg/ml.

[3] = tested on: E. coli O14; experiment: bactericidal and growth inhibitory activity, E. coli O14 (Example 9); format: cell-based; settings: for Concentration of agent for 100% killing: E. coli O14, 2 hours; for Concentration of agent for inhibition of growth: E. coli O14, spectrophotometrically after 20 hours
Procedure: E. coli O14 was incubated as described above in the presence of the peptides during 2 hours. The bactericidal activity was measured in the same way as described above.
The inhibition of growth was measured spectrophotometrically after incubation during 20 hours.

[4] = tested on: C. albicans; experiment: microbicidal activity MMC99%, C. albicans (Example 28); format: cell-based; settings: C. albicans (Table 24)
Procedure: (§1) In the examples, the minimal microbicidal concentrations (MMC) and minimal inhibitory concentrations (MIC) were determined as follows, unless otherwise specified in the examples. Bacterial or fungal strains were cultured in BHI medium over night at 37° C. A volume of the culture was transferred to a new tube with BHI and incubated for two more hours. Thereafter the cells were spun down and the pellet was suspended in BHI medium diluted 1/100 (1% BHI). The concentration of bacterial or fungal cells was spectrophotometrically determined at 650 nm. The microbial concentrations were also determined by viable counts. Peptides serially diluted in 1% BHI by twofold or tenfold steps were added in triplicate to the wells of a microtiterplate (200 μl per well). The bacterial or fungal cell solutions were added in 10 μl volumes to give a final concentration of approximately 1-5×10^5 cells per ml in the well. The microplate was incubated at 37° C. in a humid chamber for two hours. Thereafter 5 μl was taken from each well and added as a drop onto a blood agar plate and incubated over night at 37° C. The microplate was incubated for another 20 hours at 37° C. and thereafter analysed spectrophotometrically at 650 nm in a microplate reader (Emax, Molecular Devices, USA). The concentration of peptide causing a 99% reduction of the inoculum after 2 hours of incubation was defined as the MMC99%. The MIC value was defined as the concentration giving no increase in the absorbance value above the background level after 20 hours of incubation.
(§2) In this example the microbicidal activity of eight of the peptides according to the invention was studied, and tested against E. coli O6K5 and C. albicans.
(§3) The concentration of each peptide needed to kill 99% of the microorganisms (MMC99%) was determined.

[5] = tested on: E. coli O6K5; experiment: microbicidal activity MMC99%, E. coli O6K5 (Example 28); format: cell-based; settings: E. coli O6K5 (Table 24)
Procedure: as §1, §2, §3

[6] = tested on: C. albicans; experiment: concentration for killing of 99% of C. albicans at different pH (Example 13, FIG. 2); format: cell-based; settings: for concentration needed for killing of 99% of C. albicans, compared with the capped cyclic peptides (in words): FIG. 2, different pH
Description: In this example the concentrations needed of three peptides according to the invention for killing of 99% of C. albicans at different pH was compared to a reference peptide. The peptides according to the invention were peptide 2 (linear), peptide 3 (cyclic), peptide 4 (linear), peptide 5 (cyclic) and peptide 7 (lactam bridged), all capped. The reference peptides used were an uncapped cyclic form and an uncapped linear form of a Morinaga peptide, Morinaga 24 and 25. The results are illustrated in FIG. 2.

[7] = tested on: C. albicans (ATCC 64549); experiment: microbe, parasite or virus in culture
Procedure: as §1
In this example the fungicidal activity of one of the peptides according to the invention, the peptide with SEQ. ID. NO. 7, was compared to the conventional antifungal agents flucytosine and fluconazole, and also to human lactoferrin (hLF). The antifungal agents were tested on C. albicans (ATCC 64549) in a concentration of 2×10^5 cells/ml. The tests were performed in BHI medium diluted 1/100.

[8] = tested on: LPS-induced IL-6 response in a monocytic cell line (THP-1); experiment: inhibition of LPS-induced IL-6 response in THP-1 cells (Example 5); format: cell-based; settings: IL-6 response in THP-1 cells, agent added 30 minutes after LPS
Procedure: In this example an in vitro test was performed to study the anti-inflammatory activity of the peptides according to the invention. More precisely, the inhibitory effect of the peptides according to the invention on the LPS-induced IL-6 response in a monocytic cell line (THP-1) was studied and compared to the effect of human lactoferrin by use of the method described by I. Mattsby-Baltzer et al., Pediatr. Res. 40:257-262, 1996. The IL-6 response in the THP-1 cells was induced by addition of LPS. hLF, peptide 3 and peptide 4, respectively, were added 30 minutes after LPS.

[9] = tested on: E. coli O6K5; experiment: urinary tract infection in mice, bacteria (CFU) in kidney (Example 6); format: in vivo; settings: Exp II, mouse strain C3H/Tif, 500 μg per mouse orally 30 minutes after instillation, 24 hours
Procedure: E. coli O6K5 was instilled into the urinary bladder of mice. 30 minutes after instillation the different agents specified in table 5 were administered orally in an amount of 500 μg per mouse and 24 hours after instillation the number of bacteria (CFU) present in bladder and in kidney was determined.
The control group consisted of 10 animals in experiment I and of 23 animals in experiment II. The animals in the control groups were given tap water instead of peptide or hLF.

[10] = tested on: E. coli O14; experiment: bactericidal activity, incubation with E. coli O14 (Example 3, exp. I and III); format: cell-based
Procedure: Human lactoferrin (hLF), peptide 3, and peptide 4, respectively, were incubated with two different strains of E. coli, E. coli O14 (experiment I) and O6K5 (experiment II), in diluted growth medium ( 1/100 BHI—brain heart infusion) for 2 hours. The peptides were also incubated with E. coli O14 in 0.05 mM KCl (pH 7) without any growth medium (experiment III). Different concentrations of the peptides were tested.
After the incubation, samples were taken for bacterial plating. Serial dilutions of five- and fourfold steps were used in experiments I and II, respectively, and of twofold steps in experiment III.
The concentrations of the different peptides required for killing 100% (experiments I and II) or 90% (experiment III) of the bacteria are given in table 2.

[11] = tested on: Candida krusei; experiment: fungicidal activity against Candida krusei strains (Example 4); format: cell-based; settings: Exp. I
Procedure: (§4) In this example the fungicidal activity of the peptides according to the invention was tested and compared to the fungicidal activity of human lactoferrin. Different concentrations of hLF, peptide 3 and peptide 4 were incubated with different strains of Candida albicans and Candida krusei during 1-2 hours at 37° C. in 0.05 mM KCl at pH 7.0 at two different occasions—experiment I and II, respectively. After incubation samples were taken for plating on Saboroud plates.

[12] = tested on: Candida albicans; experiment: fungicidal activity against Candida albicans strains (Example 4); format: cell-based
Procedure: as §4

## CSCC[C@H](NC(=O)[C@@H]1CC(=O)NCCCC[C@H](NC(=O)[C@H](Cc2ccccc2)NC(=O)[C@H](C)NC(=O)[C@H](CCCCN)NC(=O)[C@@H](NC(C)=O)[C@@H](C)O)C(=O)N[C@@H](Cc2c[nH]c3ccccc23)C(=O)N[C@@H](CCC(N)=O)C(=O)N[C@@H](CCCNC(=N)N)C(=O)N1)C(=O)N[C@@H](CCCNC(=N)N)C(=O)N[C@@H](CCCCN)C(=O)N[C@H](C(=O)N[C@@H](CCCNC(=N)N)C(N)=O)C(C)C [Peptide 7] (Ac-TKAFKWQRDMRKVR-NH2; lactam 5-9)
[1]
  Concentration of agent for 100% killing: 3.1 µg/mL
  Concentration of agent for inhibition of growth: 1.5 µg/mL
[2]
  MMC99%: ≦6.25 μg/ml
[3]
  Concentration of agent for 100% killing: 12.5 µg/mL
  Concentration of agent for inhibition of growth: ≦1.5 μg/ml
[4]
  MMC99%: 5
[5]
  MMC99%: >20
[6]; FIG. 2, all different pH
  concentration needed for killing of 99% of C. albicans, ranking over all pH (in words): most effective peptide at all different pH
[6]
  concentration needed for killing of 99% of C. albicans, compared with the capped cyclic peptides (in words): better effects than the capped cyclic peptides
[7]; ATCC64549
  MIC: 6.2 µg/mL (≈ 3.31 µM)
[7]; C. albicans ATCC 64549, 2×10^5 cells/ml, BHI diluted 1/100
  MMC99%: 6.2 µg/mL

## SEQ. ID. NO. 98: 14 amino acids, modified positions 18-31 of human lactoferrin; sequence only in sequence listing (TKKFQWQRNMRKVR)
[2]
  MMC99%: ≦6.25 μg/ml

## SEQ. ID. NO. 36: second embodiment, sequence from a position 13-25 to position 31 of human lactoferrin; sequence only in sequence listing (TKCFQWQRNMRKVR; ends and bridges not checked)
[2]
  MMC99%: ≦6.25 μg/ml

## Peptide 3: cyclic form of SEQ. ID. NO. 2, disulphide bridge between the two cysteines in positions 5 and 22 (Ac-EATKCFQWQRNMRKVRGPPVSCIKR; disulfide 5-22)
[1]
  Concentration of agent for 100% killing: 6.2 µg/mL
  Concentration of agent for inhibition of growth: 6.2 µg/mL
[8]
  % inhibition of LPS response: 17%
[3]
  Concentration of agent for 100% killing: 12.5 µg/mL
  Concentration of agent for inhibition of growth: 3.1 µg/mL
[6]
  concentration needed for killing of 99% of C. albicans, compared with the capped cyclic peptides (in words): better effects than the capped cyclic peptides
[9]
  Statistical comparison of treatment group with control group of the number of bacteria, CFU, present in kidney (p, Mann-Whitney): p = 0.0574
[10]; Exp. I: 100% killing, E. coli O14, 1/100 BHI, 2 hours
  Concentration of agent for 100%/90% killing: 4.4 µg/mL
[10]; Exp. III: 90% killing, E. coli O14, 0.05 mM KCl (pH 7) without growth medium
  Concentration of agent for 100%/90% killing: 12.5 µg/mL
[11]; C. krusei CCUG 969
  ratio hLF/pep. (concentration for 99% killing): 20
[11]; C. krusei CCUG 969, 0.05 mM KCl pH 7.0
  Concentration of agent for 99% killing: 1.25 µg/mL
[11]; C. krusei CCUG 35849
  ratio hLF/pep. (concentration for 99% killing): 21
[11]; C. krusei CCUG 35849, 0.05 mM KCl pH 7.0
  Concentration of agent for 99% killing: 0.6 µg/mL
[12]; Exp. I, C. albicans ATCC 64549
  ratio hLF/pep. (concentration for 99% killing): >83
[12]; Exp. I, C. albicans ATCC 64549, 0.05 mM KCl pH 7.0, 1-2 hours 37° C.
  Concentration of agent for 99% killing: 0.6 µg/mL
[12]; Exp. I, C. albicans CCUG 90028
  ratio hLF/pep. (concentration for 99% killing): >83
[12]; Exp. I, C. albicans CCUG 90028, 0.05 mM KCl pH 7.0
  Concentration of agent for 99% killing: 0.6 µg/mL
[12]; Exp. II, C. albicans ATCC 64549
  ratio hLF/pep. (concentration for 99% killing): >133
[12]; Exp. II, C. albicans ATCC 64549, 0.05 mM KCl pH 7.0
  Concentration of agent for 99% killing: 1.5 µg/mL
[12]; Exp. II, C. albicans CCUG 599
  ratio hLF/pep. (concentration for 99% killing): >133
[12]; Exp. II, C. albicans CCUG 599, 0.05 mM KCl pH 7.0
  Concentration of agent for 99% killing: 1.5 µg/mL
[12]; Exp. II, C. albicans CCUG 1759
  ratio hLF/pep. (concentration for 99% killing): >133
[12]; Exp. II, C. albicans CCUG 1759, 0.05 mM KCl pH 7.0
  Concentration of agent for 99% killing: 1.5 µg/mL
